According to ChEMBL document CHEMBL5370648, “Rational Design of Bioorthogonally Activatable PROTAC for Tumor-Targeted Protein Degradation” (J Med Chem, 2023):
The source made the active and inactive calls.

How the values were obtained:
[1] = Retention time of the compound by HPLC method; assay type: physicochemical
MDA-MB-231 = experiment: Cytotoxicity against human MDA-MB-231 cells assessed as inhbition of cell growth measured after 48 hrs by CCK-8 method; assay type: functional, cell-based; conditions: MDA-MB-231, 48 h
MCF7 [2] = experiment: Cytotoxicity against human MCF7 cells assessed as inhbition of cell growth measured after 48 hrs by CCK-8 method; assay type: functional, cell-based; conditions: MCF7, 48 h
T47D = experiment: Cytotoxicity against 12 hrs BODIPY-TZ treated human T47D cells assessed as inhbition of cell growth measured after 48 hrs by CCK-8 method; assay type: functional, cell-based
MCF7 [3] = experiment: Cytotoxicity against 12 hrs BODIPY-TZ treated human MCF7 cells assessed as inhbition of cell growth measured after 48 hrs by CCK-8 method; assay type: functional, cell-based
[4] = Drug uptake in 12 hrs BODIPY-TZ treated human […] cells assessed as strong fluorescence at 600 nM measured after 30 mins by fluorescence microscopy analysis; assay type: ADME, cell-based; conditions: t47d, 0.5 h, 0.6 µM
[5] = target: T1, von Hippel-Lindau disease tumor suppressor/Bromodomain-containing protein 4 (Homo sapiens, UniProt O60885+P40337); experiment: PROTAC activity at BRD4/VHL E3 ligase in human T47D cells assessed as decrease in BRD4 expression at upto 2.0 uM incubated for 48 hrs by Western blot analysis; assay type: cell-based
[6] = target: T1, von Hippel-Lindau disease tumor suppressor/Bromodomain-containing protein 4; experiment: PROTAC activity at BRD4/VHL E3 ligase in 12 hrs BODIPY-TZ treated human T47D cells assessed as reduction in BRD4 expression at upto 2.0 uM incubated for 48 hrs by Western blot analysis; assay type: cell-based
[7] = target: T1, von Hippel-Lindau disease tumor suppressor/Bromodomain-containing protein 4; experiment: PROTAC activity at BRD4/VHL E3 ligase in 12 hrs BODIPY-TZ treated human MDA-MB-231 cells assessed as reduction in BRD4 expression at upto 2.0 uM incubated for 48 hrs by Western blot analysis; assay type: cell-based
[8] = target: T2, von Hippel-Lindau disease tumor suppressor/Bromodomain-containing protein 3 (Homo sapiens) (UniProt Q15059+P40337); experiment: PROTAC activity at BRD3/VHL E3 ligase in 12 hrs BODIPY-TZ treated human T47D cells assessed as reduction in BRD3 expression at upto 2.0 uM incubated for 48 hrs by Western blot analysis; assay type: cell-based
[9] = target: T2, von Hippel-Lindau disease tumor suppressor/Bromodomain-containing protein 3 (Homo sapiens); experiment: PROTAC activity at BRD3/VHL E3 ligase in 12 hrs BODIPY-TZ treated human MDA-MB-231 cells assessed as reduction in […] expression at upto 2.0 uM incubated for 48 hrs by Western blot analysis; assay type: cell-based
[10] = target: T2, von Hippel-Lindau disease tumor suppressor/Bromodomain-containing protein 3 (Homo sapiens); experiment: PROTAC activity at BRD3/VHL E3 ligase in 12 hrs BODIPY-TZ treated human MCF7 cells assessed as reduction in BRD3 expression at upto 2.0 uM incubated for 48 hrs by Western blot analysis; assay type: cell-based
[11] = target: T1, von Hippel-Lindau disease tumor suppressor/Bromodomain-containing protein 4; experiment: PROTAC activity at BRD4/VHL E3 ligase in human T47D cells assessed as induction of degradation of intracellular BRD4 at 200 nM incubated for 48 hrs by immunofluorescence staining assay; assay type: cell-based
[12] = target: T1, von Hippel-Lindau disease tumor suppressor/Bromodomain-containing protein 4; experiment: PROTAC activity at BRD4/VHL E3 ligase in human MDA-MB-231 cells assessed as induction of degradation of intracellular BRD4 at 200 nM incubated for 48 hrs by immunofluorescence staining assay; assay type: cell-based
[13] = target: T1, von Hippel-Lindau disease tumor suppressor/Bromodomain-containing protein 4; experiment: PROTAC activity at BRD4/VHL E3 ligase in human MCF7 cells assessed as induction of degradation of intracellular BRD4 at 200 nM incubated for 48 hrs by immunofluorescence staining assay; assay type: cell-based
[14] = target: T1, von Hippel-Lindau disease tumor suppressor/Bromodomain-containing protein 4; experiment: PROTAC activity at BRD4/VHL E3 ligase in 12 hrs BODIPY-TZ treated human T47D cells assessed as induction of degradation of BRD4 at upto 1000 nM incubated for 48 hrs in presence of MG132 by immunofluorescence staining assay; assay type: cell-based
[15] = target: T1, von Hippel-Lindau disease tumor suppressor/Bromodomain-containing protein 4; experiment: PROTAC activity at BRD4/VHL E3 ligase in 12 hrs BODIPY-TZ treated human T47D cells assessed as induction of degradation of BRD4 at upto 1000 nM incubated for 48 hrs in presence of MLN4924 by immunofluorescence staining assay; assay type: cell-based
[16] = target: T1, von Hippel-Lindau disease tumor suppressor/Bromodomain-containing protein 4; experiment: PROTAC activity at BRD4/VHL E3 ligase in 12 hrs BODIPY-TZ treated human T47D cells assessed as degradation of BRD4 expression incubated for 48 hrs by Western blot analysis; assay type: cell-based
[17] = target: T1, von Hippel-Lindau disease tumor suppressor/Bromodomain-containing protein 4; experiment: PROTAC activity at BRD4/VHL E3 ligase in 12 hrs BODIPY-TZ treated human MCF7 cells assessed as degradation of BRD4 expression incubated for 48 hrs by Western blot analysis; assay type: cell-based
[18] = target: T1, von Hippel-Lindau disease tumor suppressor/Bromodomain-containing protein 4; experiment: PROTAC activity at BRD4/VHL E3 ligase in 12 hrs BODIPY-TZ treated human T47D cells assessed as suppression of c-Myc expression incubated for 48 hrs by Western blot analysis; assay type: cell-based
[19] = target: T1, von Hippel-Lindau disease tumor suppressor/Bromodomain-containing protein 4; experiment: PROTAC activity at BRD4/VHL E3 ligase in 12 hrs BODIPY-TZ treated human MDA-MB-231 cells assessed as suppression of c-Myc expression incubated for 48 hrs by Western blot analysis; assay type: cell-based
[20] = target: T1, von Hippel-Lindau disease tumor suppressor/Bromodomain-containing protein 4; experiment: PROTAC activity at BRD4/VHL E3 ligase in 12 hrs BODIPY-TZ treated human MCF7 cells assessed as suppression of c-Myc expression incubated for 48 hrs by Western blot analysis; assay type: cell-based
[21] = target: T1, von Hippel-Lindau disease tumor suppressor/Bromodomain-containing protein 4; experiment: PROTAC activity at BRD4/VHL E3 ligase in 12 hrs BODIPY-TZ treated human T47D cells assessed as activation of caspase-3 expression incubated for 48 hrs by Western blot analysis; assay type: cell-based
[22] = target: T1, von Hippel-Lindau disease tumor suppressor/Bromodomain-containing protein 4; experiment: PROTAC activity at BRD4/VHL E3 ligase in 12 hrs BODIPY-TZ treated human MDA-MB-231 cells assessed as activation of caspase-3 expression incubated for 48 hrs by Western blot analysis; assay type: cell-based
[23] = target: T1, von Hippel-Lindau disease tumor suppressor/Bromodomain-containing protein 4; experiment: PROTAC activity at BRD4/VHL E3 ligase in 12 hrs BODIPY-TZ treated human MCF7 cells assessed as activation of caspase-3 expression incubated for 48 hrs by Western blot analysis; assay type: cell-based
MCF7 [24] = experiment: Antitumor activity against IR808-TZ treated human MCF7 cells xenografted in BALB/c nude mouse assessed as tumor growth inhibition at 20 mg/kg measured after 16 days; assay type: functional, organism-based; conditions: time 16.0 day
MCF7 [25] = experiment: Antitumor activity against human MCF7 cells xenografted in BALB/c nude mouse assessed as fold increase in tumor volume at 20 mg/kg measured at day 23 post injection; assay type: functional; conditions: time 23 day
[26] = Toxicity in BALB/c nude mouse assessed as animal death at 10 mg/kg measured after 16 days in presence of IR808-TZ; assay type: organism-based; conditions: in vivo, 384 h, time 16 day
MCF7 [27] = experiment: Antitumor activity against IR808-TZ treated human MCF7 cells xenografted in BALB/c nude mouse model assessed as inhibition of tumor cell proliferation by measuring reduction in Ki67 staining at 20 mg/kg administered for 16 days by immunohistochemical analysis; assay type: functional, organism-based; conditions: time 16.0 day
[28] = target: T1, von Hippel-Lindau disease tumor suppressor/Bromodomain-containing protein 4; experiment: In vivo PROTAC activity at BRD4/VHL E3 ligase in BALB/c nude mouse xenografted with human MCF7 cells assessed as reduction in BRD4 protein level in tumor 10 mg/kg measured after 48 hrs in presence of IR808-TZ by Western blot analysis; assay type: functional, organism-based
MCF7 [29] = experiment: Antitumor activity against human MCF7 cells xenografted in BALB/c nude mouse assessed as apoptosis at 20 mg/kg measured after 48 hrs in presence of IR808-TZ by Western blot analysis; assay type: functional, organism-based

T1 sequence (P40337 whole entry, looked up, other chains not shown): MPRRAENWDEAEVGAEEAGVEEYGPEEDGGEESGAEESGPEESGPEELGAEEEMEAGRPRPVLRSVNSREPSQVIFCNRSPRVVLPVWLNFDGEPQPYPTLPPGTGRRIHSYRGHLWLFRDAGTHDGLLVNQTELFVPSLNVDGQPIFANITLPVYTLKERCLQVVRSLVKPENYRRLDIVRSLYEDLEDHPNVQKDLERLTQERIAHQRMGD
T2 sequence (P40337 whole entry partner): as the sequence (P40337 whole entry, looked up, other chains not shown) above
T2 sequence (Q15059 2-726 limits assumed): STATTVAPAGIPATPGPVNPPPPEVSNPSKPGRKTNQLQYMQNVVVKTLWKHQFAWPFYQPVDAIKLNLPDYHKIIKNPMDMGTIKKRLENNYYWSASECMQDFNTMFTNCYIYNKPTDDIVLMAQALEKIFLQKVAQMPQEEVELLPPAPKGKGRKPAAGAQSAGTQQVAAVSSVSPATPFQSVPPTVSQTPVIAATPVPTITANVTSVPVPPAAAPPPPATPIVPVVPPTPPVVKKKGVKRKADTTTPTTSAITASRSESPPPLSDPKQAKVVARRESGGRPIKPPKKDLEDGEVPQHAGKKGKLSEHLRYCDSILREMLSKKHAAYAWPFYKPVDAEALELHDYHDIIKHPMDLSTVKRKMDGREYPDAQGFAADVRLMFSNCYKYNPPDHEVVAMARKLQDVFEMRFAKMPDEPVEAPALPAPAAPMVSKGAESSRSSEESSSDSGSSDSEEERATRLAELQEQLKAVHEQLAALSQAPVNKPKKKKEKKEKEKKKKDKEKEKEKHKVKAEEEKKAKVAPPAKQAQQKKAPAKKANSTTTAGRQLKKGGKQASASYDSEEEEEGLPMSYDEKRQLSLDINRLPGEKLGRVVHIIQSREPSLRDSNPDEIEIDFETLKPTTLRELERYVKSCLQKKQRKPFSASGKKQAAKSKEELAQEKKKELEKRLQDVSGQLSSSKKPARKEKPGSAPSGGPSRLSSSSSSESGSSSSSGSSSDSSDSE

CC1=CC(C)=[N+]2C1=C(c1cccc(-c3nnc(C)nn3)c1)c1c(C)cc(C)n1[B-]2(F)F
1320 nM: IC50 (MCF7 [2])
5.98: fold change (FC) (MCF7 [25])
active: Activity [6] | Activity [7] | Activity [8] | Activity [9] | Activity [10] | Activity [16] | Activity [17] | Activity [18] | Activity [19] | Activity [20] | Activity [21] | Activity [22] | Activity [23] | Activity (MCF7 [24]) | Activity (MCF7 [27]) | Activity [28] | Activity (MCF7 [29])
inactive: Activity [5] | Activity [11] | Activity [12] | Activity [13] | Activity [14] | Activity [15]
407 nM: IC50 (T47D)
Active: Drug uptake [4]
652 nM: IC50 (MDA-MB-231)
Toxic: Activity [26]
264 nM: IC50 (MCF7 [3])
19.92 min: Retention_time [1]
